Results from ChEMBL document CHEMBL1201862, “PubChem BioAssay data set” (2004).
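Five compound concentrations were applied to cells in 96-well plates for 48 hours; endpoints were derived by simple linear interpolation of the resulting dose-response curve. At the GI50, growth is halved.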 The source made the active and inactive calls. Rule as the data show it: active = GI50 up to about 1.1 µM and inactive = higher.

Assays:
Experiment in all cases: NCI-60 cell line screen, 48 h
COLO 205 = tested on: COLO 205
SR = tested on: SR
MDA-MB-435 = tested on: MDA-MB-435
UACC-257 = tested on: UACC-257
U-251 = tested on: U-251
786-0 = tested on: 786-0
SF-295 = tested on: SF-295
HCT-15 = tested on: HCT-15
MCF7 = tested on: MCF7
M14 = tested on: M14
A549 = tested on: A549
KM12 = tested on: KM12
TK-10 = tested on: TK-10
SK-MEL-5 = tested on: SK-MEL-5
HCT-116 = tested on: HCT-116
SNB-75 = tested on: SNB-75
HL-60 = tested on: HL-60
Malme-3M = tested on: Malme-3M
BT-549 = tested on: BT-549

| SMILES | GI50 (COLO 205) | GI50 (SR) | GI50 (MDA-MB-435) | GI50 (UACC-257) | GI50 (U-251) | GI50 (786-0) | GI50 (SF-295) | GI50 (HCT-15) | GI50 (MCF7) | GI50 (M14) | GI50 (A549) | GI50 (KM12) | GI50 (TK-10) | GI50 (SK-MEL-5) | GI50 (HCT-116) | GI50 (SNB-75) | GI50 (HL-60) | GI50 (Malme-3M) | GI50 (BT-549) |
| --- | --- | --- | --- | --- | --- | --- | --- | --- | --- | --- | --- | --- | --- | --- | --- | --- | --- | --- | --- |
| O=C(/C=C/c1ccc(Cl)c(Cl)c1)Oc1ccc(/C=C2\CCCCC2=O)cc1 | > 100 µM (inactive) | > 100 µM (inactive) | 78.2 µM (inactive) | > 100 µM (inactive) | > 100 µM (inactive) | > 100 µM (inactive) | > 100 µM (inactive) | > 100 µM | > 100 µM (inactive) | > 100 µM (inactive) | > 100 µM (inactive) | > 100 µM (inactive) | > 100 µM (inactive) | > 100 µM (inactive) | > 100 µM (inactive) | > 100 µM (inactive) | 25.4 µM (inactive) |  |  |
| CC1=[N+]([O-])C(C)(C)N(O)C1(C)C | > 100 µM (inactive) | > 100 µM (inactive) | > 100 µM (inactive) |  | > 100 µM (inactive) | > 100 µM (inactive) | > 100 µM (inactive) | > 100 µM | > 100 µM (inactive) | > 100 µM (inactive) | > 100 µM (inactive) | > 100 µM (inactive) | > 100 µM (inactive) | > 100 µM (inactive) | > 100 µM (inactive) | > 100 µM (inactive) | > 100 µM (inactive) | > 100 µM (inactive) |  |
| C[C@@H]1O[C@@H]2OCC[C@@H]2C2=C1C(=O)c1ccccc1C2=O | 23.9 µM (inactive) | 4.24 µM (inactive) | 1.94 µM (inactive) | 11.5 µM (inactive) | 7.53 µM (inactive) | 12.3 µM (inactive) | 15.8 µM (inactive) | 15.6 µM | 1.25 µM (inactive) | 3.98 µM (inactive) | 19 µM (inactive) | 15.2 µM (inactive) | 19.7 µM (inactive) | 5.94 µM (inactive) |  | 9.95 µM (inactive) | 3.51 µM (inactive) | 2.19 µM (inactive) |  |
| O=C(NO)c1ccc(C(=O)NO)cc1 | 49.7 µM (inactive) | 27.4 µM (inactive) | 48 µM (inactive) | 56.9 µM (inactive) | 1.25 µM (inactive) | > 100 µM (inactive) | > 100 µM (inactive) | > 100 µM | > 100 µM (inactive) | 97.9 µM (inactive) | > 100 µM (inactive) | 79.8 µM (inactive) | 76 µM (inactive) | 81.7 µM (inactive) | 56.1 µM (inactive) | 8.2 µM (inactive) | 42.7 µM (inactive) | 9.27 µM (inactive) |  |
| COC1(OC)N=C(N)C2(C#N)C(C)=C3NCN(C)N=C3C12C#N (stereo not given) | > 100 µM (inactive) |  | > 100 µM (inactive) | > 100 µM (inactive) | > 100 µM (inactive) | > 100 µM (inactive) | > 100 µM (inactive) | > 100 µM | > 100 µM (inactive) | > 100 µM (inactive) | > 100 µM (inactive) | > 100 µM (inactive) | > 100 µM (inactive) | > 100 µM (inactive) | > 100 µM (inactive) | > 100 µM (inactive) | > 10 µM (inactive) | > 100 µM (inactive) |  |
| COc1ccc(C2S/C(=C\c3cccc([N+](=O)[O-])c3)C(=O)N2NC(=O)Cc2ccccc2)cc1 (stereo not given) | > 100 µM (inactive) | > 100 µM (inactive) |  | > 100 µM (inactive) | > 100 µM (inactive) | > 100 µM (inactive) | > 100 µM (inactive) | > 100 µM |  | > 100 µM (inactive) | > 100 µM (inactive) | > 100 µM (inactive) | > 100 µM (inactive) | > 100 µM (inactive) | > 100 µM (inactive) | > 100 µM (inactive) | > 100 µM (inactive) | > 100 µM (inactive) |  |
| COc1ccc2cc(C(=O)NCCc3ccccc3)ccc2c1OC | > 100 µM (inactive) | 49.9 µM (inactive) | > 100 µM (inactive) | > 100 µM (inactive) | 33 µM (inactive) | 39.4 µM (inactive) | 69.2 µM (inactive) | > 100 µM | > 100 µM (inactive) | > 100 µM (inactive) | > 100 µM (inactive) |  |  | 97.3 µM (inactive) | 96.6 µM (inactive) |  |  | > 100 µM (inactive) |  |
| CC(=O)CC(O)(C(F)(F)Cl)C(F)(Cl)Cl (stereo not given) | > 10 µM (inactive) |  | > 10 µM (inactive) | > 10 µM (inactive) | > 10 µM (inactive) | > 10 µM (inactive) | > 10 µM (inactive) | > 10 µM | > 10 µM (inactive) | > 10 µM (inactive) | > 10 µM (inactive) | > 10 µM (inactive) | > 10 µM (inactive) | > 10 µM (inactive) | > 10 µM (inactive) | > 10 µM (inactive) | > 10 µM (inactive) | > 10 µM (inactive) |  |
| OC(c1ccc(F)cc1)C(F)(F)c1nc(-c2ccccc2)no1 (stereo not given) |  |  | 19.4 µM (inactive) | 19.6 µM (inactive) | 0.126 µM (active) | 20.1 µM (inactive) |  | 23.9 µM | 23.7 µM (inactive) | 17.9 µM (inactive) |  |  | 38.3 µM (inactive) |  | 19.1 µM (inactive) |  | 22.5 µM (inactive) | 13.9 µM (inactive) | 17.8 µM (inactive) |
| COC(=O)/C=C1/SC(/C(=C(/[O-])OC)[n+]2ccc3ccccc3c2)=NC1=O | > 100 µM (inactive) | 63 µM (inactive) | > 100 µM (inactive) | > 100 µM (inactive) | 67.5 µM (inactive) | > 100 µM (inactive) | > 100 µM (inactive) |  | > 100 µM (inactive) | > 100 µM (inactive) | > 100 µM (inactive) | > 100 µM (inactive) |  | > 100 µM (inactive) | > 100 µM (inactive) | 90.2 µM (inactive) | > 100 µM (inactive) | > 100 µM (inactive) |  |
| CN1CCCCC1CCN1CCCCC1 (stereo not given) | 56.4 µM (inactive) |  | > 100 µM (inactive) | > 100 µM (inactive) | > 100 µM (inactive) | > 100 µM (inactive) | > 100 µM (inactive) | > 100 µM | > 100 µM (inactive) | > 100 µM (inactive) | > 100 µM (inactive) | > 100 µM (inactive) | > 100 µM (inactive) | > 100 µM (inactive) | > 100 µM (inactive) | > 100 µM (inactive) | 83 µM (inactive) | > 100 µM (inactive) | > 100 µM (inactive) |
| CC(Cl)CC(=O)OCC1CCCN2CCCCC12 (stereo not given) | > 100 µM (inactive) |  | > 100 µM (inactive) | > 100 µM (inactive) | > 100 µM (inactive) | > 100 µM (inactive) | > 100 µM (inactive) | > 100 µM | > 100 µM (inactive) | > 100 µM (inactive) | > 100 µM (inactive) | > 100 µM (inactive) | > 100 µM (inactive) | > 100 µM (inactive) | > 100 µM (inactive) | > 100 µM (inactive) | 54.7 µM (inactive) | > 100 µM (inactive) | > 100 µM (inactive) |
| CCOC(=O)n1c2ccccc2c(=O)n1CCO | > 100 µM (inactive) | > 100 µM (inactive) |  | > 100 µM (inactive) | > 100 µM (inactive) | > 100 µM (inactive) | > 100 µM (inactive) | > 100 µM | > 100 µM (inactive) | > 100 µM (inactive) | > 100 µM (inactive) | > 100 µM (inactive) | > 100 µM (inactive) | > 100 µM (inactive) | > 100 µM (inactive) | 28.8 µM (inactive) | > 100 µM (inactive) | > 100 µM (inactive) | > 100 µM (inactive) |
| COC(=O)[C@H](Cc1ccccc1)NC(=O)N1CCN(C(=O)N[C@@H](Cc2ccccc2)C(=O)OC)CCN(C(=O)N[C@@H](Cc2ccccc2)C(=O)OC)CC1 | > 100 µM (inactive) |  | > 100 µM (inactive) | > 100 µM (inactive) | > 100 µM (inactive) | > 100 µM (inactive) | > 100 µM (inactive) | > 100 µM | > 100 µM (inactive) | > 100 µM (inactive) | > 100 µM (inactive) | > 100 µM (inactive) | > 100 µM (inactive) | > 100 µM (inactive) | > 100 µM (inactive) | > 100 µM (inactive) | > 100 µM (inactive) | > 100 µM (inactive) | > 100 µM (inactive) |
| Cc1cc(C)c(-n2c(C)c(C)c(C#N)c2N)c(C)c1 | 19.7 µM (inactive) | 11 µM (inactive) | 23 µM (inactive) | 18.1 µM (inactive) | 17.4 µM (inactive) | 41 µM (inactive) | 36.4 µM (inactive) | 27.9 µM |  | 27.5 µM (inactive) | 36.5 µM (inactive) | 36.1 µM (inactive) | 32.4 µM (inactive) | 14.9 µM (inactive) | 18.8 µM (inactive) | 31.9 µM (inactive) | 15.1 µM (inactive) | 25.1 µM (inactive) | 34.8 µM (inactive) |
| C/C(Sc1ccccc1)=C1/CCCN(Cc2ccccc2)C1 | 17.5 µM (inactive) | 16.1 µM (inactive) | 25.1 µM (inactive) | 18.7 µM (inactive) | 20.5 µM (inactive) | 19.5 µM (inactive) | 17.4 µM (inactive) | 14.2 µM | 20.2 µM (inactive) | 11.9 µM (inactive) | 32.7 µM (inactive) | 20.1 µM (inactive) | 18.6 µM (inactive) | 14.3 µM (inactive) |  | 23.6 µM (inactive) | 13.7 µM (inactive) | 14.3 µM (inactive) |  |
| Clc1ccccc1C(c1ccccc1)(c1ccccc1)n1ccnc1 [CLOTRIMAZOLE] | 8.99 µM (inactive) |  | 12.5 µM (inactive) | 10.8 µM (inactive) | 14.8 µM (inactive) | 14.9 µM (inactive) | 9.95 µM (inactive) | 8.67 µM | 7.33 µM (inactive) | 13.5 µM (inactive) | 8.2 µM (inactive) | 11.7 µM (inactive) | 15.3 µM (inactive) | 7.78 µM (inactive) | 7.82 µM (inactive) | 16.5 µM (inactive) |  | 4.8 µM (inactive) | 8.05 µM (inactive) |
